# Results taken from patent US8354443B2, “Cyclopropane indolinone derivatives” (Hoffmann-La Roche Inc., priority 2009, dated 2013).
# Test system: recombinant AMPK proteins (α1β1γ1, α2β1γ1, α1(1-335), α1(1-394) or α2(1-394))
# Test: Scintillation Proximity Assay (AMPK activation)
# Format: biochemical, human
# Details: effective concentration of activator for 50% of maximal enzyme activity; 2 hr at 30° C.; AMPK form not specified
# Source text: Recombinant human AMPK α1β1γ1, α2β1γ1 or AMPK a subunit truncations α1 (1-335), α1 (1-394) and α2(1-394) were constructed, expressed and purified as described previously (Pang, T., Zhang, Z. S., Gu, M., Qiu, B. Y., Yu, L. F., Cao, P. R., Shao, W., Su, M. B., Li, J. Y., Nan, F. J., and Li, J. (2008) or purchased from Invitrogen (San Diego, Calif., U.S.A.). Rat liver AMPK heterotrimer enzyme was obtained from Upstate (Billerica, Mass., U.S.A.).
# Before the Scintillation Proximity Assay (SPA) assay, 200 nM recombinant AMPK proteins (α1β1γ1, α2β1γ1, α1(1-335), α1(1-394) or α2(1-394)) were fully phosphorylated as described previously (Pang et al., 2008). SPA reactions were performed in 96-well plates at a final volume of 50 μl containing 20 mM Tris-HCl pH 7.5, 5 mM MgCl2, 1 mM DTT, 2 μM biotin-SAMS, 2 μM ATP, 0.2 μCi/well [γ-^33P]ATP, and various amount of activator. Reactions were initiated by the addition of 50 nM recombinant AMPK proteins to the reaction solutions and incubated at 30° C. for 2 hr. After that, reactions were terminated by the addition of 40 μl stop solution containing 80 μg streptavidin-coated SPA beads per well, 50 mM EDTA, 0.1% Triton X-100 in PBS, pH 7.5 and incubated for 1 hr. Finally, a 160 μl suspension solution containing 2.4 M CsCl, 50 mM EDTA, and 0.1% Triton X-100 in PBS (pH 7.5) was added to the reaction solution to suspend SPA beads completely. SPA signals were determined with a Wallac MicroBeta plate counter (PerkinElmer) 30 min later for calculation of the amount of product formed. The amount of products formed in 2 hr was plotted against activator concentrations to determine the effective concentration of the activator (EC50) required for 50% of maximal enzyme activity.
row,SMILES,EC50 [µM]
1,"O=C(O)c1cccc(CN2C(=O)[C@]3(C[C@@H]3c3ccccc3F)c3ccccc32)c1 (mixture of isomers) [Example 8, (1S,2R) and (1R,2S)-3-((2-(2-fluorophenyl)-2′-oxospiro[cyclopropane-1,3′-indoline]-1′-yl)methyl)benzoic acid]",2.77
2,"O=C(O)c1cccc(CN2C(=O)[C@]3(C[C@H]3c3ccccc3F)c3ccccc32)c1 (mixture of isomers) [Example 9, (1S,2S) and (1R,2R)-3-((2-(2-fluorophenyl)-2′-oxospiro[cyclopropane-1,3′-indoline]-1′-yl)methyl)benzoic acid]",1.19
3,"CN(C)[C@H]1CCN(CCN2C(=O)[C@]3(C[C@@H]3c3ccc(Cl)cc3)c3ccccc32)C1 (mixture of isomers) [Example 76, (1S,2R)-2-(4-chlorophenyl)-1′-(2-((S)-3-(dimethylamino)pyrrolidin-1-yl)ethyl)spiro[cyclopropane-1,3′-indolin]-2′-one and (1R,2S)-2-(4-chlorophenyl)-1′-(2-((S)-3-(dimethylamino)pyrrolidin-1-yl)ethyl)spiro[cyclopropane-1,3′-indolin]-2′-one]",1.09
4,"CN(C)[C@@H]1CCN(CCN2C(=O)[C@@]3(C[C@H]3c3ccc(Cl)cc3)c3ccccc32)C1 (mixture of isomers) [Example 77, (1S,2R)-2-(4-chlorophenyl)-1′-(2-((R)-3-(dimethylamino)pyrrolidin-1-yl)ethyl)spiro[cyclopropane-1,3′-indolin]-2′-one and (1R,2S)-2-(4-chlorophenyl)-1′-(2-((R)-3-(dimethylamino)pyrrolidin-1-yl)ethyl)spiro[cyclopropane-1,3′-indolin]-2′-one]",2.17
5,"CC1CN(CCNCCN2C(=O)[C@]3(C[C@@H]3c3ccc(Cl)cc3)c3ccccc32)CC(C)O1 (mixture of isomers) [Example 130, (1S,2R) and (1R,2S)-2-(4-chlorophenyl)-1′-(2-(2-(2,6-dimethylmorpholino)ethylamino)ethyl) Spiro[cyclopropane-1,3′-indolin]-2′-one]",1.1
6,"O=C(O)c1cccc(CN2C(=O)[C@@]3(C[C@H]3c3ccc(Cl)cc3)c3ccccc32)c1 (racemic) [Example 1, (1R,2S) and (1S,2R)-3-((2-(4-chlorophenyl)-2′-oxospiro[cyclopropane-1,3′-indoline]-1′-yl)methyl)benzoic acid]",2.57
7,"O=C(O)c1cccc(CN2C(=O)[C@@]3(C[C@@H]3c3ccc(Cl)cc3)c3ccccc32)c1 (racemic) [Example 2, (1R,2R) and (1S,2S)-3-((2-(4-chlorophenyl)-2′-oxospiro[cyclopropane-1,3′-indoline]-1′-yl)methyl)benzoic acid]",0.96
8,"O=C(O)c1cccc(CN2C(=O)[C@]3(C[C@@H]3c3cccc(Cl)c3)c3ccccc32)c1 (racemic) [Example 3, (1S,2R) and (1R,2S)-3-((2-(3-chlorophenyl)-2′-oxospiro[cyclopropane-1,3′-indoline]-1′-yl)methyl)benzoic acid]",2.98
9,"N#Cc1ccc([C@H]2C[C@]23C(=O)N(Cc2cccc(C(=O)O)c2)c2ccccc23)cc1 (racemic) [Example 5, (1S,2R) and (1R,2S)-3-((2-(4-cyanophenyl)-2′-oxospiro[cyclopropane-1,3′-indoline]-1′-yl)methyl)benzoic acid]",5.3
10,"O=C(O)c1cc(CN2C(=O)[C@]3(C[C@@H]3c3ccc(Cl)cc3)c3ccccc32)ccc1Cl (racemic) [Example 6, (1S,2R) and (1R,2S)-2-chloro-5-((2-(4-chlorophenyl)-2′-oxospiro[cyclopropane-1,3′-indoline]-1′-yl)methyl)benzoic acid]",7.1
11,"CS(=O)(=O)c1ccc([C@H]2C[C@]23C(=O)N(Cc2cccc(C(=O)O)c2)c2ccccc23)cc1 (racemic) [Example 7, (1S,2R) and (1R,2S)-3-((2-(4-(methylsulfonyl)phenyl)-2′-oxospiro[cyclopropane-1,3′-indoline]-1′-yl)methyl)benzoic acid]",10.8
12,"O=C(O)c1cccc(CN2C(=O)[C@]3(C[C@@H]3c3cccc(F)c3)c3ccccc32)c1 (racemic) [Example 10, (1S,2R) and (1R,2S)-3-((2-(3-fluorophenyl)-2′-oxospiro[cyclopropane-1,3′-indoline]-1′-yl)methyl)benzoic acid]",2.02
13,"O=C(O)c1cccc(CN2C(=O)[C@]3(C[C@H]3c3cccc(F)c3)c3ccccc32)c1 (racemic) [Example 11, (1S,2S) and (1R,2R)-3-((2-(3-fluorophenyl)-2′-oxospiro[cyclopropane-1,3′-indoline]-1′-yl)methyl)benzoic acid]",2.04
14,"O=C(O)c1cccc(CN2C(=O)[C@]3(C[C@H]3c3ccccc3C(F)(F)F)c3ccccc32)c1 (racemic) [Example 12, (1S,2S) and (1R,2R)-3-((2′-oxo-2-(2-(trifluoromethyl)phenyl)-spiro[cyclopropane-1,3′-indoline]-1′-yl)methyl)benzoic acid]",2.36
15,"O=C(O)c1cccc(CN2C(=O)[C@@]3(C[C@@H]3c3ccc(Cl)cc3)c3cc(Cl)ccc32)c1 (racemic) [Example 14, (1R,2R) and (1S,2S)-3-((5′-chloro-2-(4-chlorophenyl)-2′-oxospiro[cyclopropane-1,3′-indoline]-1′-yl)methyl)benzoic acid]",2.03
16,"O=C(O)c1cccc(CN2C(=O)[C@@]3(C[C@@H]3c3ccc(Cl)cc3)c3cc(Br)ccc32)c1 (racemic) [Example 15, (1R,2R) and (1S,2S)-3-((5′-bromo-2-(4-chlorophenyl)-2′-oxospiro[cyclopropane-1,3′-indoline]-1′-yl)methyl)benzoic acid]",2.48
17,"O=C(O)c1cccc(CN2C(=O)[C@]3(C[C@@H]3c3ccc(Cl)cc3)c3cc(Br)ccc32)c1 (racemic) [Example 16, (1S,2R) and (1R,2S)-3-((5′-bromo-2-(4-chlorophenyl)-2′-oxospiro[cyclopropane-1,3′-indoline]-1′-yl)methyl)benzoic acid]",2.72
18,"N#Cc1ccc([C@@H]2C[C@]23C(=O)N(Cc2cccc(C(=O)O)c2)c2ccccc23)cc1 (racemic) [Example 17, (1S,2S) and (1R,2R)-3-((2-(4-cyanophenyl)-2′-oxospiro[cyclopropane-1,3′-indoline]-1′-yl)methyl)benzoic acid]",1.63
19,"COc1cccc([C@H]2C[C@]23C(=O)N(Cc2cccc(C(=O)O)c2)c2ccccc23)c1 (racemic) [Example 18, (1S,2R) and (1R,2S)-3-((2-(3-methoxyphenyl)-2′-oxospiro[cyclopropane-1,3′-indoline]-1′-yl)methyl)benzoic acid]",1.66
20,"COc1cccc([C@@H]2C[C@]23C(=O)N(Cc2cccc(C(=O)O)c2)c2ccccc23)c1 (racemic) [Example 19, (1S,2S) and (1R,2R)-3-((2-(3-methoxyphenyl)-2′-oxospiro[cyclopropane-1,3′-indoline]-1′-yl)methyl)benzoic acid]",1.42
21,"COc1ccc([C@@H]2C[C@]23C(=O)N(Cc2cccc(C(=O)O)c2)c2ccccc23)cc1 (racemic) [Example 20, (1S,2S) and (1R,2R)-3-((2-(4-methoxyphenyl)-2′-oxospiro[cyclopropane-1,3′-indoline]-1′-yl)methyl)benzoic acid]",0.9
22,"COc1ccc([C@H]2C[C@]23C(=O)N(Cc2cccc(C(=O)O)c2)c2ccccc23)cc1 (racemic) [Example 21, (1S,2R) and (1R,2S)-3-((2-(4-methoxyphenyl)-2′-oxospiro[cyclopropane-1,3′-indoline]-1′-yl)methyl)benzoic acid]",2.03
23,"O=C(O)c1cccc(CN2C(=O)[C@]3(C[C@@H]3c3ccc(Cl)cc3)c3cc(F)ccc32)c1 (racemic) [Example 22, (1S,2R) and (1R,2S)-3-((2-(4-chlorophenyl)-5′-fluoro-2′-oxospiro[cyclopropane-1,3′-indoline]-1′-yl)methyl)benzoic acid]",11.2
24,"O=C(O)c1cccc(CN2C(=O)[C@]3(C[C@H]3c3ccc(Cl)cc3)c3cc(F)ccc32)c1 (racemic) [Example 23, (1S,2S) and (1R,2R)-3-((2-(4-chlorophenyl)-5′-fluoro-2′-oxospiro[cyclopropane-1,3′-indoline]-1′-yl)methyl)benzoic acid]",1.66
25,"O=C(O)c1cccc(CN2C(=O)[C@]3(C[C@@H]3c3ccc(F)cc3)c3ccccc32)c1 (racemic) [Example 24, (1S,2R) and (1R,2S)-3-((-2-(4-fluorophenyl)-2′-oxospiro[cyclopropane-1,3′-indoline]-1′-yl)methyl)benzoic acid]",5.75
